The values that follow come from US4725687A (priority 1986, dated 1988).

SMILES strings stand for the structures. Where two headings read alike, the source gives them in different places.

The subject of series [1] is L1210 cells. Description: L1210 cell growth inhibition in culture. It counts as cell-based. To be noted: for IC50: Mus musculus; for potency in the L1210 cell growth inhibition test relative to 5-deazamethotrexate: compared with 5-deazamethotrexate; for potency in the L1210 cell growth inhibition test relative to MTX: compared with MTX. An excerpt:
(§1) (a) Methods are described by Sirotnak et al, "Molecular Actions and
(§2) Targets for Cancer Chemotherapy Agents", Sartorelli, A.C. Ed., Academic
(§3) Press., New York, pps. 349-383 (1981); Sirotnak et al, Biochem.
(§4) Pharmacol., Vol. 29, p. 3293 (1980); and Sirotnak et al, Cancer Res., Vol

For series [2], the system named is L1210 cells. Description: Mediated transport (influx, efflux) in L1210 cells. The format is cell-based. To be noted: n = 3-4, SE; for Km: influx.
Description: as §1, §2, §3, §4

Series [3] deals with L1210 cells. Description: Rate of net polyglutamate formation in L1210 cells. It counts as cell-based. Particulars: for order of initial rates of polyglutamate accumulation: comparable rates of drug entry; for Rate of net polyglutamate formation: conditions of comparable rates of drug entry.
The subject of series [4] is P388/0. Description: Survival of P388/0 bearing mice, in vivo. More on the design: species or system murine. Particulars: for survival time: P388/0, ip, control 10.8 days; for % T/C: P388/0, survival time, ip. The source says:
(§5) Comparison of the Response of Murine P388/0
(§6) ^a Implant: ip, 10^6 cells; method described by Geran et al,
(§7) Cancer Chemother. Rep. Part 3, Vol. 3 (2) (1972).

Series [5] concerns P388/MTX. Description: Survival of P388/MTX (MTX-resistant P388) bearing mice, in vivo. To be noted: ip; for survival time: control 17.2 days; for % T/C: survival time. Also on record: species or system murine.
Description: as §5, §6, §7

In series [6] the test system is EO771 mammary adenocarcinoma. Description: Antitumor effects against the EO771 mammary adenocarcinoma in mice. It counts as in vivo. Particulars: once per day for five days; for T/C (tumor volume treated/control) / tumor free total / AWC (average weight change): day 7; for toxic deaths total: day 7, 14 or 21; for ave. tumor vol.: day 7, ± SE, control 225 ± 60; for tumor free total: control 0/14. An excerpt: 5-Methyl-5-Deazamethotrexate (20) Against the EO771
Mammary Adenocarcinoma. Average of Two Separate
Experiments (5 Mice/Group) ± SE of the Mean.
^1 given once per day for five days starting one day after tumor
^2 average weight change on day 7 (one day after cessation of therapy
^3 assessed on day 7, 14 or 21
^4 assessed on day 7 (4/3 πr^3) T/C = treated/control
^5 assessed on day 7 (one day after cessation of therapy)

Setting [7] is: read-out: Cell Growth inhibn IC50 (n = 4) ± SE, L1210 cells, n = 4, ± SE.
[8] abbreviates: qd 1-5, optimal dose 0.25 mg/kg.

As usually defined, the IC50 is the concentration needed to halve the response being measured. Broadly, the Km is the substrate concentration at which the rate is half of its maximum. For `CN(Cc1cnc2nc(N)nc(N)c2c1)c1ccc(C(=O)N[C@@H](CCC(=O)O)C(=O)O)cc1` [Compound 5-dMTX, 5-deazamethotrexate, reference compound], the half-maximal inhibitory concentration (IC50) in series [1] (setting [7]) came out at 2850 ± 300 pM. In addition, in series [2], the “Mediated Transport efflux k + SE” value was 0.28 ± 0.04 min⁻¹ and the Km was 4 ± 0.5 µM. Besides, in series [3], the “order of initial rates of polyglutamate accumulation” value (“order” for short) is “AMT>5-Me-5-dAMT>5-dAMT>MTX>5-dMTX>5-Me5-dMTX” and the “Rate of net polyglutamate formation” value is 48.8 pM/min/g dry wt. Also, in series [4] (qd 1-5, optimal dose 4 mg/kg), the survival time is reported as 18.0 days and the “% T/C” value amounted to 166%. Moreover, in series [5] (qd 1-5, optimal dose 4 mg/kg), the survival time is listed as 20.3 days and the “% T/C” value came to 118%.
As to `CCOC(=O)CC[C@H](NC(=O)c1ccc(NCc2cnc3nc(N)nc(N)c3c2)cc1)C(=O)OCC` [Compound 9, N-[4-[[(2,4-Diaminopyrido[2,3-d]pyrimidin-6-yl)methyl]-amino]benzoyl]-L-glutamic Acid Diethyl Ester], in series [4] (qd 1-5, optimal dose 1 mg/kg), the survival time is 16.2 days and the “% T/C” value stood at 151%. Moreover, in series [5] (qd 1-5, optimal dose 1 mg/kg), the survival time is listed as 20.8 days and the “% T/C” value is reported as 120%.
With `Nc1nc(N)c2cc(CNc3ccc(C(=O)N[C@@H](CCC(=O)O)C(=O)O)cc3)cnc2n1` [Compound 11], the IC50 in series [1] (setting [7]) is 630 ± 70 pM. Also, in series [2], the “Mediated Transport efflux k + SE” value was 0.30 ± 0.04 min⁻¹ and the Km was 1.1 ± 0.2 µM. Further, in series [3], the “order” value is reported as “AMT>5-Me-5-dAMT>5-dAMT>MTX>5-dMTX>5-Me5-dMTX” and the “Rate of net polyglutamate formation” value is listed as 84.2 pM/min/g dry wt. For the same compound, in series [4] (qd 1-5, optimal dose 0.5 mg/kg), the survival time is given as 15.8 days and the “% T/C” value worked out at 146%. In series [5] (qd 1-5, optimal dose 2 mg/kg), the survival time is on record as 21.8 days and the “% T/C” value was 126%.
As to `Cc1c(CNc2ccc(C(=O)N[C@@H](CCC(=O)O)C(=O)O)cc2)cnc2nc(N)nc(N)c12` [Compound 12], the IC50 in series [1] (L1210, read-out: Cell Growth inhibn IC50 (n = 4) ± SE) came out at 1290 ± 200 pM. Further, in series [2], the “Mediated Transport efflux k + SE” value was found to be 0.26 ± 0.05 min⁻¹ and the Michaelis constant (Km) came out at 1.2 ± 0.2 µM. Also, in series [3], the “order” value is recorded as “AMT>5-Me-5-dAMT>5-dAMT>MTX>5-dMTX>5-Me5-dMTX” and the “Rate of net polyglutamate formation” value worked out at 98.3 pM/min/g dry wt. In series [4] (qd 1-5, optimal dose 0.5 mg/kg), the survival time stood at 16.4 days and the “% T/C” value came out at 151%. Also, in series [5] (qd 1-5, optimal dose 0.5 mg/kg), the survival time was determined as 20.8 days and the “% T/C” value amounted to 120%.
On to `Cc1c(CN(C)c2ccc(C(=O)N[C@@H](CCC(=O)O)C(=O)O)cc2)cnc2nc(N)nc(N)c12` [Compound 20, N-[4-[[2,4-Diamino-5-methylpyrido[2,3-d]pyrimidin-6-yl)methyl]methylamino]benzoyl-L-glutamic Acid], for which the IC50 in series [1] (setting [7]) is 240 ± 30 pM. Also, in series [1], the “potency in the L1210 cell growth inhibition test relative to 5-deazamethotrexate” value was “more than 10 times” and the “potency in the L1210 cell growth inhibition test relative to MTX” value is 10 times. In series [2], the “Mediated Transport efflux k + SE” value worked out at 0.31 ± 0.05 min⁻¹ and the Km was 3.2 ± 0.4 µM. Also, in series [3], the “order” value is listed as “AMT>5-Me-5-dAMT>5-dAMT>MTX>5-dMTX>5-Me5-dMTX” and the “Rate of net polyglutamate formation” value was found to be 42.9 pM/min/g dry wt. Moreover, in series [4] (qd 1-5, optimal dose 1 mg/kg), the survival time is 19.7 days and the “% T/C” value is given as 182%. Further, in series [5] (setting [8]), the survival time stood at 20.8 days and the “% T/C” value came out at 120%. In series [6] (0.375 mg/kg), the “T/C (tumor volume treated/control)” value was found to be 0.25, the toxic deaths total is given as 0/10, the ave. tumor vol. was determined as 50 ± 16 mm^3 and the tumor free total is recorded as 0/10. For the same compound, in series [6] (0.75 mg/kg), the “T/C (tumor volume treated/control)” value is listed as 0.13, the toxic deaths total was 0/10, the ave. tumor vol. was 35 ± 10 mm^3 and the tumor free total is given as 1/10. In series [6] (1.5 mg/kg), the “T/C (tumor volume treated/control)” value came out at 0.03, the toxic deaths total is recorded as 0/10, the ave. tumor vol. is 4 ± 2 mm^3 and the tumor free total is given as 6/10. Moreover, in series [6] (3.0 mg/kg), the “T/C (tumor volume treated/control)” value came to 0.02, the toxic deaths total is given as 5/6, the ave. tumor vol. is 3 ± 1 mm^3 and the tumor free total result is “toxic”.
In the case of `CCN(Cc1cnc2nc(N)nc(N)c2c1C)c1ccc(C(=O)N[C@@H](CCC(=O)O)C(=O)O)cc1` [Compound 21], in series [1] (setting [7]), the IC50 worked out at 260 ± 20 pM. Moreover, in series [1], the “potency in the L1210 cell growth inhibition test relative to 5-deazamethotrexate” value is recorded as “more than 10 times” and the “potency in the L1210 cell growth inhibition test relative to MTX” value is recorded as 10 times. Also, in series [2], the “Mediated Transport efflux k + SE” value came to 0.29 ± 0.04 min⁻¹ and the Km came to 3.3 ± 0.5 µM.
On to `CN(Cc1cnc2nc(N)nc(N)c2n1)c1ccc(C(=O)N[C@@H](CCC(=O)O)C(=O)O)cc1` [MTX, Methotrexate, reference compound], for which, in series [2], the “Mediated Transport efflux k + SE” value was found to be 0.33 ± 0.06 min⁻¹ and the Km was found to be 3.3 ± 0.7 µM. In series [3], the “order” value was “AMT>5-Me-5-dAMT>5-dAMT>MTX>5-dMTX>5-Me5-dMTX”. In addition, in series [4] (qd 1-5, optimal dose 4 mg/kg), the survival time worked out at 19.7 days and the “% T/C” value is listed as 182%. Besides, in series [5] (qd 1-5, optimal dose 3.5 mg/kg), the survival time is listed as 20.3 days and the “% T/C” value came to 118%. Besides, in series [6] (1.5 mg/kg), the “AWC (average weight change)” value is on record as “+0.9 g”, the “T/C (tumor volume treated/control)” value was determined as 0.60, the toxic deaths total is recorded as 0/10 and the ave. tumor vol. stood at 102 ± 32 mm^3. Besides, in series [6] (1.5 mg/kg), the tumor free total is on record as 1/10. In series [6] (3.0 mg/kg), the “AWC (average weight change)” value was -0.2 g, the “T/C (tumor volume treated/control)” value turned out to be 0.61, the toxic deaths total is recorded as 0/10 and the ave. tumor vol. came out at 108 ± 24 mm^3. In addition, in series [6] (3.0 mg/kg), the tumor free total was 1/10. In series [6] (6.0 mg/kg), the “AWC (average weight change)” value is reported as -2.1 g, the “T/C (tumor volume treated/control)” value turned out to be 0.12, the toxic deaths total is given as 4/10 and the ave. tumor vol. came out at 22 ± 5 mm^3. Further, the tumor free total entry in series [6] (6.0 mg/kg) was “toxic”.
